The assay deals with Lactoylglutathione lyase (Saccharomyces cerevisiae). As to the kind of experiment: Ability to inhibit yeast glyoxalase I enzyme in 0.05 M phosphate buffer, pH 6.6, 30 degree C.

In turn, `NC(CNC(=O)NC(CSCc1ccc(Br)cc1)C(=O)NCC(=O)O)C(=O)O` (stereo unspecified) [2-Amino-3-{3-[2-(4-bromo-benzylsulfanyl)-1-(carboxymethyl-carbamoyl)-ethyl]-ureido}-propionic acid] displayed a Ki of 15.5 µM.

A word on the Ki: it is a measure of affinity in units of concentration, obtained from inhibition or displacement.

The values are drawn from BindingDB's records for doi:10.1016/s0960-894x(99)00097-9 (University of Minnesota, 1999).
